Measured values published in the NIST ThermoML archive (doi:10.1021/je200721d).
Numbers after ± are expanded uncertainties.

Assay: xn = mol fraction of the nth substance listed
Conditions: Liquid, Vibrating tube method

CCCCCCCCCC [decane] + CCCCCC
mass density [kg/m3]
Conditions | x2 = 0.0456 | x2 = 0.2185 | x2 = 0.7524
343.05 K, 22000 kPa | 709.65 ± 0.42 | – | –
343.05 K, 23000 kPa | 710.45 ± 0.43 | – | –
343.05 K, 24000 kPa | 711.25 ± 0.43 | – | –
343.05 K, 25000 kPa | 712.03 ± 0.44 | – | –
343.06 K, 1000 kPa | – | 681.09 ± 0.26 | 641.66 ± 0.28
343.06 K, 2000 kPa | – | 682.19 ± 0.27 | 643.07 ± 0.28
343.06 K, 3000 kPa | – | 683.33 ± 0.27 | 644.43 ± 0.29
343.06 K, 4000 kPa | – | 684.4 ± 0.28 | 645.8 ± 0.3
343.06 K, 5000 kPa | – | 685.47 ± 0.29 | 647.1 ± 0.31
343.06 K, 6000 kPa | – | 686.52 ± 0.3 | 648.4 ± 0.32
343.06 K, 7000 kPa | – | 687.54 ± 0.3 | 649.65 ± 0.33
343.06 K, 8000 kPa | – | 688.57 ± 0.31 | 650.88 ± 0.34
343.06 K, 9000 kPa | – | 689.57 ± 0.32 | 652.12 ± 0.34
343.06 K, 10000 kPa | – | 690.55 ± 0.33 | 653.31 ± 0.35
343.06 K, 11000 kPa | – | 691.53 ± 0.34 | 654.46 ± 0.36
343.06 K, 12000 kPa | – | 692.48 ± 0.34 | 655.59 ± 0.37
343.06 K, 13000 kPa | – | 693.45 ± 0.35 | 656.72 ± 0.38
343.06 K, 14000 kPa | – | 694.36 ± 0.36 | 657.81 ± 0.39
343.06 K, 15000 kPa | – | 695.27 ± 0.37 | 658.89 ± 0.4
343.06 K, 16000 kPa | – | 696.19 ± 0.38 | 659.96 ± 0.41
343.06 K, 17000 kPa | – | 697.07 ± 0.39 | 661 ± 0.42
343.06 K, 18000 kPa | – | 697.94 ± 0.39 | 662.03 ± 0.43
343.06 K, 19000 kPa | – | 698.83 ± 0.4 | 663.03 ± 0.44
343.06 K, 20000 kPa | – | 699.68 ± 0.41 | 664.01 ± 0.45
343.06 K, 21000 kPa | – | 700.53 ± 0.42 | 664.97 ± 0.46
343.06 K, 22000 kPa | – | 701.36 ± 0.43 | –
